Assay results from patent US20250333377A1, “SOLID FORM OF NAPHTHYLAMINE MITOPHAGY INDUCER, AND PREPARATION METHOD THEREFOR, PHARMACEUTICAL COMPOSITION THEREOF AND USE THEREOF” (HANGZHOU PHECDAMED CO., LTD., priority 2023, published 2025).

Key:
[1] = Crystal form conversion (heat treatment, suspension competition test, DSC analysis); assay type: physicochemical; conditions: for Crystal form conversion / relative stability in suspension competition test: equal amounts mixed, RT/50, magnetic stirring ~1000 rpm, about 20 hours
Source text: The mutual conversion relationship among the A, B, C, D crystal forms of the sodium salt is further studied in this embodiment by heat treatment under nitrogen protection and suspension competition test.
However, the methods of heating, suspension pulping as well as grinding can not study the thermodynamic conversion relationship between crystal form A and crystal form D. In order to further study the thermodynamic conversion relationship of crystal form A and crystal form D, analyzed from the DSC pattern, the DSC of crystal form A is shown in FIG. 2, and the DSC of crystal form D is shown in FIG. 11, the melting point of crystal form A is higher than that of crystal form D, whereas the enthalpy of melting of crystal form A is much lower than that of crystal form D. It may be judged from the thermodynamic stability relationship table that if TA>TD, ΔHf, A>ΔHf, D, crystal form A and D is a univariate relationship, crystal form A is stable, if TA>TD, ΔHf, A<ΔHf, D, crystal forms A and D are reciprocal relationships, if the temperature is higher than the transcrystallization temperature, crystal form A is stable, and if the temperature is lower than the transcrystallization temperature, crystal form D is stable.

[2] = Hygroscopicity (vapor sorption analyser, DVS); assay type: physicochemical; conditions: for Percentage weight gain by moisture absorption: 90% RH, 25° C.; for Hygroscopicity (in words): according to Table 7, 90% RH
Method: Single crystalline sample of compound TJ01-013 is tested using a Waters vaporsorption analyser. Taking a dry weighing tray, and laying a single sample of crystal form flat in the weighing tray, and the volume of the loaded samples is about ⅓ to ⅔ of that of the weighing tray. Instrument parameters are set as follows: temperature: 25° C.; equilibrium: dm/dt=0.01%/min (minimum time: 10 minutes, and maximum time: 180 minutes); drying: drying 120 minutes under 0% RH; RH (%) testing gradient: 10%; RH (%) test gradient range: 0%-90%-0%.

SMILES | Percentage weight gain by moisture absorption [2] [%] | Hygroscopicity (in words) [2] | other results
O=C(O)C[S+]([O-])c1cc(NS(=O)(=O)c2ccc(Br)cc2)c2ccccc2c1O (stereo not drawn) [Embodiment 1] |  |  | Crystal form conversion / relative stability in suspension competition test ([1]; listed as crystal form A): more stable than crystal form B, C
O=C(O)C[S+]([O-])c1cc(NS(=O)(=O)c2ccc(Br)cc2)c2ccccc2c1O (stereo not drawn) [Embodiment 2] |  |  | Crystal form conversion / relative stability in suspension competition test ([1]; listed as crystal form B): able to be converted into crystal form A, D; Crystal form conversion on heat treatment ([1]; heating to 106° C. and then cooling to room temperature, nitrogen protection): converted into crystal form C
O=C(O)C[S+]([O-])c1cc(NS(=O)(=O)c2ccc(Br)cc2)c2ccccc2c1O (stereo not drawn) [Embodiment 3] |  |  | Crystal form conversion / relative stability in suspension competition test ([1]; listed as crystal form C): able to be converted into crystal form A, D
O=C(O)C[S+]([O-])c1cc(NS(=O)(=O)c2ccc(Br)cc2)c2ccccc2c1O (stereo not drawn) [Embodiment 5] | 2.655 | slightly hygroscopic | 
O=C(O)C[S+]([O-])c1cc(NS(=O)(=O)c2ccc(Br)cc2)c2ccccc2c1O (stereo not drawn) [Embodiment 6] | 7.275 |  | 
O=C(O)C[S+]([O-])c1cc(NS(=O)(=O)c2ccc(Br)cc2)c2ccccc2c1O (stereo not drawn) [Embodiment 7] | 2.313 | slightly hygroscopic | 
O=C(O)C[S+]([O-])c1cc(NS(=O)(=O)c2ccc(Br)cc2)c2ccccc2c1O (stereo not drawn) [Embodiment 9] | 0.7884 | slightly hygroscopic | 
O=C(O)C[S+]([O-])c1cc(NS(=O)(=O)c2ccc(Br)cc2)c2ccccc2c1O (stereo not drawn) [Embodiment 10] | 0.2033 | slightly hygroscopic | 
O=C(O)C[S+]([O-])c1cc(NS(=O)(=O)c2ccc(Br)cc2)c2ccccc2c1O (stereo not drawn) [Embodiment 11] | 1.897 | slightly hygroscopic | 
O=C(O)C[S+]([O-])c1cc(NS(=O)(=O)c2ccc(Br)cc2)c2ccccc2c1O (stereo not drawn) [Embodiment 12] | 6.026 |  | 
O=C(O)C[S+]([O-])c1cc(NS(=O)(=O)c2ccc(Br)cc2)c2ccccc2c1O (stereo not drawn) [Embodiment 13] | 0.439 | slightly hygroscopic | 
